Laboratory results taken from patent publication US20090311344A1, “Dosing Regimen” (priority 2008, published 2009).

Experiment: Multiple dose study in cancer subjects: treatment-emergent (serious) adverse events
Conditions: n of N = 12
Procedure: 46 subjects with cancer receiving platinum-based therapies were enrolled into 3 cohorts (N=16 in Cohort 1, 14 in Cohort 2, and 16 in Cohort 3). The subjects received the TPO mimetic peptide compound or placebo within 2 hours prior to the platinum-based chemotherapy on Day 1 of the first 2 cycles with a 21-day interval between each cycle. In addition to the Day 1 administration, gemcitabine administration was permitted on Day 8 of each cycle. Other chemotherapy medications were limited to dosing on Day 1 of each cycle only. Subjects were followed up for a total of 4 cycles of chemotherapy. Chemotherapy regimen continued beyond the first 4 cycles as per standard of care therapy. In the first cohort, 12 subjects received 1.5 μg/kg the TPO mimetic peptide compound and 4 subjects received placebo. In the second cohort 10 subjects received 3.0 μg/kg the TPO mimetic peptide compound and 4 subjects received placebo. In the third cohort, 12 subjects received 2.25 μg/kg the TPO mimetic peptide compound and 4 subjects received placebo. […] Therefore, a third cohort at a lower dose (2.25 μg/kg) was added to collect additional safety, tolerability, PD, and PK data.

Substance: Methoxypolyethyleneglycol20000-propionyl-L-Isoleucyl-L-Glutamyl-Glycyl-L-Prolyl-L-Threonyl-L-Leucyl-L-Arginyl-L-Glutaminyl-L-2-Naphthylalanyl-L-Leucyl-L-Alanyl-L-Alanyl-L-Arginyl-Sarcosyl-Ne-(methoxypolyethyleneglycol20000-propionyl-L-Isoleucyl-L-Glutamyl-Glycyl-L-Prolyl-L-Threonyl-L-Leucyl-L-Arginyl-L-Glutaminyl-L-2-Naphthylalanyl-L-Leucyl-L-Alanyl-L-Alanyl-L-Arginyl-Sarcosyl-)-Lysinamide [TPO mimetic peptide compound]
- Adverse event: Abdominal pain (1.5 ug/kg): 2
- Adverse event: Acute myocardial infarction (1.5 ug/kg): 1
- Adverse event: Alanine aminotransferase increased (1.5 ug/kg): 0
- Adverse event: Alopecia (1.5 ug/kg): 2
- Adverse event: Anemia (1.5 ug/kg): 7
- Adverse event: Anorexia (1.5 ug/kg): 5
- Adverse event: Anxiety (1.5 ug/kg): 1
- Adverse event: Arthralgia (1.5 ug/kg): 0
- Adverse event: Aspartate aminotransferase increased (1.5 ug/kg): 0
- Adverse event: Atrial fibrillation (1.5 ug/kg): 1
- Adverse event: Azotaemia (1.5 ug/kg): 0
- Adverse event: Blood and lymphatic system disorders (1.5 ug/kg): 8
- Adverse event: Blood creatinine increased (1.5 ug/kg): 1
- Adverse event: C-reactive protein increased (1.5 ug/kg): 0
- Adverse event: Cancer pain (1.5 ug/kg): 1
- Adverse event: Cardiac disorders (1.5 ug/kg): 3
- Adverse event: Cardiac failure (1.5 ug/kg): 1
- Adverse event: Chills (1.5 ug/kg): 0
- Adverse event: Confusional state (1.5 ug/kg): 0
- Adverse event: Constipation (1.5 ug/kg): 3
- Adverse event: Cough (1.5 ug/kg): 0
- Adverse event: Dehydration (1.5 ug/kg): 0
- Adverse event: Dermatitis acneiform (1.5 ug/kg): 0
- Adverse event: Diabetes mellitus non-insulin-dependent (1.5 ug/kg): 1
- Adverse event: Diarrhea (1.5 ug/kg): 2
- Adverse event: Dizziness (1.5 ug/kg): 0
- Adverse event: Dry skin (1.5 ug/kg): 0
- Adverse event: Dyspepsia (1.5 ug/kg): 0
- Adverse event: Dyspnoea (1.5 ug/kg): 1
- Adverse event: Ear and labyrinth disorders (1.5 ug/kg): 0
- Adverse event: Epistaxis (1.5 ug/kg): 0
- Adverse event: Eructation (1.5 ug/kg): 0
- Adverse event: Fatigue (1.5 ug/kg): 5
- Adverse event: Febrile neutropenia (1.5 ug/kg): 0
- Adverse event: Folliculitis (1.5 ug/kg): 1
- Adverse event: Gastrointestinal disorders (1.5 ug/kg): 7
- Adverse event: General disorders and administration site conditions (1.5 ug/kg): 7
- Adverse event: General physical health deterioration (1.5 ug/kg): 0
- Adverse event: Haematocrit decreased (1.5 ug/kg): 0
- Adverse event: Headache (1.5 ug/kg): 1
- Adverse event: Hemorrhoids (1.5 ug/kg): 1
- Adverse event: Hepatobiliary disorders (1.5 ug/kg): 0
- Adverse event: Hiccups (1.5 ug/kg): 1
- Adverse event: Hyperbilirubinaemia (1.5 ug/kg): 0
- Adverse event: Hypersensitivity (1.5 ug/kg): 0
- Adverse event: Hypertension (1.5 ug/kg): 0
- Adverse event: Hypoalbuminaemia (1.5 ug/kg): 0
- Adverse event: Hypocalcaemia (1.5 ug/kg): 1
- Adverse event: Hypokalaemia (1.5 ug/kg): 0
- Adverse event: Hypomagnesaemia (1.5 ug/kg): 0
- Adverse event: Hyponatraemia (1.5 ug/kg): 0
- Adverse event: Hypophosphataemia (1.5 ug/kg): 1
- Adverse event: Immune system disorders (1.5 ug/kg): 0
- Adverse event: Insomnia (1.5 ug/kg): 0
- Adverse event: Investigations (1.5 ug/kg): 3
- Adverse event: Leukocytosis (1.5 ug/kg): 0
- Adverse event: Leukopenia (1.5 ug/kg): 2
- Adverse event: Lung abscess (1.5 ug/kg): 1
- Adverse event: Lymphopenia (1.5 ug/kg): 2
- Adverse event: Metabolism and nutrition disorders (1.5 ug/kg): 5
- Adverse event: Mucosal inflammation (1.5 ug/kg): 0
- Adverse event: Musculoskeletal and connective tissue disorders (1.5 ug/kg): 0
- Adverse event: Nausea (1.5 ug/kg): 6
- Adverse event: Neoplasms benign, malignant and unspecified (incl cysts and polyps) (1.5 ug/kg): 1
- Adverse event: Nervous system disorders (1.5 ug/kg): 3
- Adverse event: Neuropathy peripheral (1.5 ug/kg): 1
- Adverse event: Neutropenia (1.5 ug/kg): 3
- Adverse event: Oedema (1.5 ug/kg): 0
- Adverse event: Oedema peripheral (1.5 ug/kg): 1
- Adverse event: Pain (1.5 ug/kg): 3
- Adverse event: Pain in extremity (1.5 ug/kg): 0
- Adverse event: Paraesthesia (1.5 ug/kg): 0
- Adverse event: Peripheral motor neuropathy (1.5 ug/kg): 1
- Adverse event: Peripheral sensory neuropathy (1.5 ug/kg): 0
- Adverse event: Platelet count decreased (1.5 ug/kg): 1
- Adverse event: Psychiatric disorders (1.5 ug/kg): 1
- Adverse event: Pyrexia (1.5 ug/kg): 1
- Adverse event: Rash (1.5 ug/kg): 2
- Adverse event: Renal and urinary disorders (1.5 ug/kg): 0
- Adverse event: Respiratory failure (1.5 ug/kg): 1
- Adverse event: Respiratory, thoracic and mediastinal disorders (1.5 ug/kg): 2
- Adverse event: Skin and subcutaneous tissue disorders (1.5 ug/kg): 4
- Adverse event: Stomatitis (1.5 ug/kg): 2
- Adverse event: Tachycardia (1.5 ug/kg): 2
- Adverse event: Thrombocythaemia (1.5 ug/kg): 1
- Adverse event: Thrombocytopenia (1.5 ug/kg): 3
- Adverse event: Tinnitus (1.5 ug/kg): 0
- Adverse event: Vascular disorders (1.5 ug/kg): 0
- Adverse event: Vomiting (1.5 ug/kg): 2
- Adverse event: Weight decreased (1.5 ug/kg): 1
- Serious adverse event: Abdominal pain (1.5 ug/kg): 1
- Serious adverse event: Acute myocardial infarction (1.5 ug/kg): 1
- Serious adverse event: Anorexia (1.5 ug/kg): 1
- Serious adverse event: Atrial fibrillation (1.5 ug/kg): 1
- Serious adverse event: Blood and lymphatic system disorders (1.5 ug/kg): 2
- Serious adverse event: Blood creatinine increased (1.5 ug/kg): 0
- Serious adverse event: Cardiac disorders (1.5 ug/kg): 2
- Serious adverse event: Cardiac failure (1.5 ug/kg): 1
- Serious adverse event: Dehydration (1.5 ug/kg): 0
- Serious adverse event: Dyspnoea (1.5 ug/kg): 0
- Serious adverse event: Fatigue (1.5 ug/kg): 1
- Serious adverse event: Febrile neutropenia (1.5 ug/kg): 0
- Serious adverse event: Gastrointestinal disorders (1.5 ug/kg): 2
- Serious adverse event: General disorders and administration site conditions (1.5 ug/kg): 2
- Serious adverse event: Hyponatraemia (1.5 ug/kg): 0
- Serious adverse event: Investigations (1.5 ug/kg): 0
- Serious adverse event: Lung abscess (1.5 ug/kg): 1
- Serious adverse event: Metabolism and nutrition disorders (1.5 ug/kg): 1
- Serious adverse event: Nausea (1.5 ug/kg): 1
- Serious adverse event: Neutropenia (1.5 ug/kg): 1
- Serious adverse event: Pain (1.5 ug/kg): 1
- Serious adverse event: Pyrexia (1.5 ug/kg): 1
- Serious adverse event: Respiratory failure (1.5 ug/kg): 1
- Serious adverse event: Respiratory, thoracic and mediastinal disorders (1.5 ug/kg): 1
- Serious adverse event: Thrombocythaemia (1.5 ug/kg): 1
- Serious adverse event: Thrombocytopenia (1.5 ug/kg): 0
- Serious adverse event: Vomiting (1.5 ug/kg): 0
- Total no. subjects WITH ADVERSE EVENTS (1.5 ug/kg): 12
- Total no. subjects WITH SERIOUS ADVERSE EVENTS (1.5 ug/kg): 5
- Adverse event: Abdominal pain (2.25 ug/kg): 1
- Adverse event: Acute myocardial infarction (2.25 ug/kg): 0
- Adverse event: Alanine aminotransferase increased (2.25 ug/kg): 0
- Adverse event: Alopecia (2.25 ug/kg): 3
- Adverse event: Anemia (2.25 ug/kg): 2
- Adverse event: Anorexia (2.25 ug/kg): 0
- Adverse event: Anxiety (2.25 ug/kg): 0
- Adverse event: Arthralgia (2.25 ug/kg): 0
- Adverse event: Aspartate aminotransferase increased (2.25 ug/kg): 0
- Adverse event: Atrial fibrillation (2.25 ug/kg): 0
- Adverse event: Azotaemia (2.25 ug/kg): 1
- Adverse event: Blood and lymphatic system disorders (2.25 ug/kg): 6
- Adverse event: Blood creatinine increased (2.25 ug/kg): 1
- Adverse event: C-reactive protein increased (2.25 ug/kg): 0
- Adverse event: Cancer pain (2.25 ug/kg): 0
- Adverse event: Cardiac disorders (2.25 ug/kg): 0
- Adverse event: Cardiac failure (2.25 ug/kg): 0
- Adverse event: Chills (2.25 ug/kg): 1
- Adverse event: Confusional state (2.25 ug/kg): 1
- Adverse event: Constipation (2.25 ug/kg): 2
- Adverse event: Cough (2.25 ug/kg): 2
- Adverse event: Dehydration (2.25 ug/kg): 1
- Adverse event: Dermatitis acneiform (2.25 ug/kg): 0
- Adverse event: Diabetes mellitus non-insulin-dependent (2.25 ug/kg): 0
- Adverse event: Diarrhea (2.25 ug/kg): 1
- Adverse event: Dizziness (2.25 ug/kg): 2
- Adverse event: Dry skin (2.25 ug/kg): 0
- Adverse event: Dyspepsia (2.25 ug/kg): 0
- Adverse event: Dyspnoea (2.25 ug/kg): 1
- Adverse event: Ear and labyrinth disorders (2.25 ug/kg): 0
- Adverse event: Epistaxis (2.25 ug/kg): 0
- Adverse event: Eructation (2.25 ug/kg): 1
- Adverse event: Fatigue (2.25 ug/kg): 1
- Adverse event: Febrile neutropenia (2.25 ug/kg): 1
- Adverse event: Folliculitis (2.25 ug/kg): 0
- Adverse event: Gastrointestinal disorders (2.25 ug/kg): 7
- Adverse event: General disorders and administration site conditions (2.25 ug/kg): 3
- Adverse event: General physical health deterioration (2.25 ug/kg): 1
- Adverse event: Haematocrit decreased (2.25 ug/kg): 1
- Adverse event: Headache (2.25 ug/kg): 1
- Adverse event: Hemorrhoids (2.25 ug/kg): 0
- Adverse event: Hepatobiliary disorders (2.25 ug/kg): 1
- Adverse event: Hiccups (2.25 ug/kg): 1
- Adverse event: Hyperbilirubinaemia (2.25 ug/kg): 1
- Adverse event: Hypersensitivity (2.25 ug/kg): 0
- Adverse event: Hypertension (2.25 ug/kg): 2
- Adverse event: Hypoalbuminaemia (2.25 ug/kg): 1
- Adverse event: Hypocalcaemia (2.25 ug/kg): 0
- Adverse event: Hypokalaemia (2.25 ug/kg): 1
- Adverse event: Hypomagnesaemia (2.25 ug/kg): 1
- Adverse event: Hyponatraemia (2.25 ug/kg): 2
- Adverse event: Hypophosphataemia (2.25 ug/kg): 0
- Adverse event: Immune system disorders (2.25 ug/kg): 0
- Adverse event: Insomnia (2.25 ug/kg): 1
- Adverse event: Investigations (2.25 ug/kg): 2
- Adverse event: Leukocytosis (2.25 ug/kg): 0
- Adverse event: Leukopenia (2.25 ug/kg): 3
- Adverse event: Lung abscess (2.25 ug/kg): 0
- Adverse event: Lymphopenia (2.25 ug/kg): 0
- Adverse event: Metabolism and nutrition disorders (2.25 ug/kg): 2
- Adverse event: Mucosal inflammation (2.25 ug/kg): 0
